Experimental findings from publication PMC5662472 (Chemical communications (Cambridge, England), 2017) are described below.

The target of data set [1] is Helicobacter pylori α1–3/4-fucosyltransferase (Hp3/4FT) (Helicobacter pylori, UniProt Q9L8S4). As to the kind of experiment: HPLC fucosyltransferase assay. Conditions: acceptor; co-substrate GDP-Fuc; labelled compound.
Data set [2] deals with C[C@@H]1O[C@H](OP(=O)(O)OP(=O)(O)OC[C@H]2O[C@@H](n3cnc4c(=O)[nH]c(N)nc43)[C@H](O)[C@@H]2O)[C@@H](O)[C@H](O)[C@@H]1O. Description: purified protein. Conditions: donor; co-substrate LacNAcβPro2AA (best acceptor).

As usually defined, the Km is the substrate concentration at which the rate is half of its maximum. The kcat is the number of substrate molecules converted per active site and unit of time at saturation. What is called kcat/Km is the second-order rate constant that governs catalysis at low substrate concentration.

On to Galβ3GlcNAcβPro2AA, for which the Km in data set [1] came out at 1320 ± 240 µM.

As for “Helicobacter pylori α1–3/4-fucosyltransferase (Hp3/4FT) (Helicobacter pylori)”, in data set [2], the Km was 860 ± 130 µM, the kcat came to 6.02 ± 0.26 s⁻¹ and the kcat/Km amounted to 7010 M⁻¹ s⁻¹. On to LacNAcβPro2AA, for which the Km in data set [1] stood at 460 ± 70 µM.

Turning to LacβPro2AA, in data set [1], the Km was 990 ± 180 µM.
